Test results as given in the supplement of paper PMC4862054.

What was measured:
BT-474 = experiment: normalised viability (% of control), CellTiter-Blue; higher = more viable cells (about 100 = DMSO control); conditions: incubation time: 72 h
Method in brief: (§1)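 The reported figure is normalised viability at a single listed concentration of the series. Breast cancer cell lines (20 µl suspension) went onto 384-well plates holding compound in 5 µl medium for 72 h. CellTiter-Blue (2.5 µl, 2 h, 37 °C) was read by fluorescence at 560/590 nm, and each plate was scaled to vehicle at 100 and a positive kill control at 0.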

MDA-MB-436 = experiment: as above; conditions: incubation time: 72 h
Method in brief: as §1

CAL-120 = experiment: as above; conditions: incubation time: 72 h
Method in brief: as §1

Hs578T = experiment: as above; conditions: incubation time: 72 h
Method in brief: as §1

SK-BR-3 = experiment: as above; conditions: incubation time: 72 h
Method in brief: as §1

HDQ-P1 = experiment: as above; conditions: incubation time: 72 h
Method in brief: as §1

HCC1143 = experiment: as above; conditions: incubation time: 72 h
Method in brief: as §1

CAL-51 = experiment: as above; conditions: incubation time: 72 h
Method in brief: as §1

MDA-MB-468 [1] = experiment: as above; conditions: incubation time: 72 h
Method in brief: as §1

HCC1937 = experiment: as above; conditions: incubation time: 72 h
Method in brief: as §1

HCC1599 = experiment: as above; conditions: incubation time: 72 h
Method in brief: as §1

MFM-223 = experiment: as above; conditions: incubation time: 72 h
Method in brief: as §1

CAL-148 = experiment: as above; conditions: incubation time: 72 h
Method in brief: as §1

BT-549 = experiment: as above; conditions: incubation time: 72 h
Method in brief: as §1

MDA-MB-231 = experiment: as above; conditions: incubation time: 72 h
Method in brief: as §1

DU-4475 = experiment: as above; conditions: incubation time: 72 h
Method in brief: as §1

CAL-85-1 = experiment: as above; conditions: incubation time: 72 h
Method in brief: as §1

MDA-MB-453 = experiment: as above; conditions: incubation time: 72 h
Method in brief: as §1

MDA-MB-468 [2] = conditions: 72 h
Method in brief: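 Two sequential readouts followed a 72 h incubation of breast cancer cell lines with compound at 5 concentrations in 10-fold steps over a compound-specific 10,000-fold range: CellTox Green fluorescence (485/520 nm) for cell death, then CellTiter-Glo luminescence, after 10 min at room temperature, for viability. Each plate was normalised to 0.1 % DMSO and a positive kill control. Dose-response curves were fitted for EC50, censored at the top concentration.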

Cc1ccc(NC(=O)c2ccc(CN3CCN(C)CC3)cc2)cc1Nc1nc(-c2cccnc2)cs1 [Masitinib]
normalised viability [%]
Conditions | 3 nM | 10 nM | 30 nM | 100 nM | 1000 nM | 10000 nM
BT-474 | – | 105 | – | – | 101 | 50.1
BT-549 | – | 94.2 | – | – | 100 | 51.2
CAL-51 | 106 | – | 100 | 97.5 | – | –
CAL-85-1 | 94.8 | – | 75.5 | 90.8 | – | –
CAL-120 | – | 82.4 | – | – | 81.8 | 79.3
CAL-148 | 80.9 | – | 82.8 | 90.6 | – | –
DU-4475 | 109 | – | 91.4 | 95.5 | – | –
HCC1143 | – | 77.4 | – | – | 88.7 | 85.5
HCC1599 | – | 86.2 | – | – | 97.6 | 95.8
HCC1937 | – | 97.3 | – | – | 99.5 | 84.8
HDQ-P1 | 94 | – | 92.9 | 99.5 | – | –
Hs578T | – | 113 | – | – | 113 | 81.4
MDA-MB-231 | – | 96.7 | – | – | 91.1 | 50.4
MDA-MB-436 | – | 97.5 | – | – | 111 | 72.4
MDA-MB-453 | 112 | – | 123 | 105 | – | –
MDA-MB-468 [1] | – | 93.3 | – | – | 105 | 53.4
MFM-223 | – | 89.2 | – | – | 93.7 | 92.5
SK-BR-3 | – | 99.6 | – | – | 102 | 25.2

Conditions | EC50, CellTiter-Glo [nM]
MDA-MB-468 [2] | 2290

O=C(Nc1cccnc1)N1CCC(Cc2cccc(Oc3ccc(C(F)(F)F)cn3)c2)CC1 [PF-3845]
normalised viability [%]
Conditions | 3 nM | 10 nM | 30 nM | 100 nM | 1000 nM | 10000 nM
BT-474 | – | 128 | – | – | 111 | 40.5
BT-549 | – | 93.3 | – | – | 86.9 | 48.6
CAL-51 | 109 | – | 98.1 | 103 | – | –
CAL-85-1 | 89.6 | – | 89.5 | 87.1 | – | –
CAL-120 | – | 99.1 | – | – | 105 | 120
CAL-148 | 91 | – | 85.3 | 97.9 | – | –
DU-4475 | 90.2 | – | 90.7 | 87.6 | – | –
HCC1143 | – | 84.3 | – | – | 88.5 | 89.5
HCC1599 | – | 95.1 | – | – | 114 | 76.6
HCC1937 | – | 122 | – | – | 108 | 97.2
HDQ-P1 | 129 | – | 115 | 113 | – | –
Hs578T | – | 116 | – | – | 94.3 | 79.1
MDA-MB-231 | – | 106 | – | – | 115 | 127
MDA-MB-436 | – | 98.1 | – | – | 116 | 101
MDA-MB-453 | 112 | – | 101 | 101 | – | –
MDA-MB-468 [1] | – | 106 | – | – | 117 | 62.8
MFM-223 | – | 91.8 | – | – | 95.5 | 74.1
SK-BR-3 | – | 111 | – | – | 106 | 116

Conditions | EC50, CellTiter-Glo [nM]
MDA-MB-468 [2] | 2500
